In the experiment the target is AAK1 (full length human) (Homo sapiens, UniProt Q2M2I8). Briefly: HEK281 Cell-Based Assay (phospho-mu2 Western blot in HEK293F cells transfected with AAK1 and AP2M1). Particulars: IC50 (nM), functional potency; inhibition of mu2 phosphorylation in HEK293F cells, 3 hours incubation, 5 concentrations.
Chain of AAK1 (full length human) (Q2M2I8 1-863 isoform Q2M2I8-2): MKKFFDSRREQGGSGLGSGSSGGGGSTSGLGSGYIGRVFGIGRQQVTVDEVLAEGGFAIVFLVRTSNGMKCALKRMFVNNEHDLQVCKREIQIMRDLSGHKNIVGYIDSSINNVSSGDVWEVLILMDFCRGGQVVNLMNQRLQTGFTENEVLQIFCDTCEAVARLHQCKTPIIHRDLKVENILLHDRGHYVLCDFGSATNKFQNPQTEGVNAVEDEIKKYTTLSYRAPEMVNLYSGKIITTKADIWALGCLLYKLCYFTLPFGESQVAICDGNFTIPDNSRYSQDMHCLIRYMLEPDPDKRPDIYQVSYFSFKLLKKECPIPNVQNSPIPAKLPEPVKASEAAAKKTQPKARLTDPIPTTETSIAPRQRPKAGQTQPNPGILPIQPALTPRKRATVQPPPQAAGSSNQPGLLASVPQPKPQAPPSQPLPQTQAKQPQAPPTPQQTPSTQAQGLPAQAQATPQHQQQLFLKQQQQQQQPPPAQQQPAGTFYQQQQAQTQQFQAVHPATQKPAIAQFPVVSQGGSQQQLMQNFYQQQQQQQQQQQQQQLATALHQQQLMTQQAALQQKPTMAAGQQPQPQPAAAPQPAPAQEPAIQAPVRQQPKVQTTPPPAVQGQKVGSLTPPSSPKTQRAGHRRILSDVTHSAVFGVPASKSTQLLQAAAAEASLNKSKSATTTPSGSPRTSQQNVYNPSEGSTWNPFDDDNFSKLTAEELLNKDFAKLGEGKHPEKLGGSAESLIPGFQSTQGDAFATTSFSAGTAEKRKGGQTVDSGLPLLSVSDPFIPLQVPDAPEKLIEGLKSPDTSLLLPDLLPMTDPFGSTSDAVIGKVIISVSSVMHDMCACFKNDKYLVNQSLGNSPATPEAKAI
`CCc1nc(C(C)CC(C)C)nc2ccc(-c3ccnc(NC(C)=O)c3)cc12` (stereo not drawn) [Example 66, N-(4-(4-Ethyl-2-(4-methylpentan-2-yl)quinazolin-6-yl)pyridin-2-yl)acetamide] had a concentration for half-maximal inhibition (IC50) of 258 nM.
The compound `CCNc1nc(C(N)CC(C)C)nc2ccc(-c3ccncc3)cc12` (stereo not drawn) [Example 24, 2-(1-Amino-3-methylbutyl)-N-ethyl-6-(pyridin-4-yl)quinazolin-4-amine] yielded a concentration for half-maximal inhibition (IC50) of 86 nM.
For `CC(C)CC(N)c1nc2ccc(-c3cnco3)cc2c(=O)[nH]1` (stereo not drawn) [Example 12, 2-(1-Amino-3-methylbutyl)-6-(oxazol-5-yl)quinazolin-4-ol], the IC50 is 140 nM.
In the case of `COCCNc1nc(CCC(C)C)nc2ccc(-c3cnco3)cc12` [Example 77, 2-Isopentyl-N-(2-methoxyethyl)-6-(oxazol-5-yl)quinazolin-4-amine] it was 3460 nM; in that of `COc1cc2nc(CCC(C)C)nc(C)c2cc1-c1cnco1` [Example 75, 5-(2-Isopentyl-7-methoxy-4-methylquinazolin-6-yl)oxazole], 590 nM.
Compound `CCc1nc(C(N)CC(C)C)nc2cc(OC)c(-c3cnco3)cc12` (single isomer, unassigned; enantiomer 2) [Example 87, 1-(4-Ethyl-7-methoxy-6-(oxazol-5-yl)quinazolin-2-yl)-3-methylbutan-1-amine (Enantiomer 2)] showed an IC50 of 13 nM.
In the case of `CCc1nc(C(N)CC(C)C)nc2ccc(-c3ccncn3)cc12` (stereo not drawn) [Example 64, 1-(4-Ethyl-6-(pyrimidin-4-yl)quinazolin-2-yl)-3-methylbutan-1-amine] it was 83 nM; in that of `CC(C)CCc1nc(NC2CC2)c2cc(-c3cnco3)ccc2n1` [Example 84, N-Cyclopropyl-2-isopentyl-6-(oxazol-5-yl)quinazolin-4-amine], 2580 nM.
In the case of `CC(C)CCc1nc(C#N)c2cc(-c3ccncc3)ccc2n1` [Example 60, 2-Isopentyl-6-(pyridin-4-yl)quinazoline-4-carbonitrile] it was 144 nM; in that of `CCc1nc(C(N)CC(C)C)nc2c(OC)cc(-c3cnco3)cc12` (stereo not drawn) [Example 5, 1-(4-Ethyl-8-methoxy-6-(oxazol-5-yl)quinazolin-2-yl)-3-methylbutan-1-amine], 75 nM; in that of `CCc1nc(C(N)C2CCCCC2)nc2ccc(-c3ccncc3)cc12` (single isomer, unassigned; (+)) [Example 8, (+)-Cyclohexyl(4-ethyl-6-(pyridin-4-yl)quinazolin-2-yl)methanamine], 61 nM.
The compound `CC(C)CCc1nc(N2CCC2)c2cc(-c3cnco3)ccc2n1` [Example 83, 5-(4-(Azetidin-1-yl)-2-isopentylquinazolin-6-yl)oxazole] came in with an IC50 of 812 nM. This IC50 lies about 13-fold higher than the previous one.
To `CCN(CC)c1nc(C(N)CC(C)C)nc2ccc(-c3cnco3)cc12` (stereo not drawn) [Example 18, 2-(1-Amino-3-methylbutyl)-N,N-diethyl-6-(oxazol-5-yl)quinazolin-4-amine] belongs 130 nM; to `CC(C)CCc1nc(NCCN(C)C)c2cc(-c3cnco3)ccc2n1` [Example 81, N^1-(2-Isopentyl-6-(oxazol-5-yl)quinazolin-4-yl)-N^2,N^2-dimethylethane-1,2-diamine], 8610 nM.
The compound `CCc1nc(C(N)CC(C)C)nc2ccc(-c3cnco3)cc12` (stereo not drawn) [Example 3, 1-(4-Ethyl-6-(oxazol-5-yl)quinazolin-2-yl)-3-methylbutan-1-amine] registered an IC50 of 77 nM.
Regarding `CC(C)CCc1nc(NCCN2CCCC2)c2cc(-c3cnco3)ccc2n1` [Example 78, 2-Isopentyl-6-(oxazol-5-yl)-N-(2-(pyrrolidin-1-yl)ethyl)quinazolin-4-amine], the IC50 turned out to be 1090 nM.
Compound `CCOc1nc(C(N)CC(C)C)nc2ccc(-c3cnco3)cc12` (stereo not drawn) [Example 15, 1-(4-Ethoxy-6-(oxazol-5-yl)quinazolin-2-yl)-3-methylbutan-1-amine] showed a half-inhibitory concentration (IC50) of 410 nM. Against the preceding compound, the IC50 is about 2.7-fold lower.
Compound `CC(C)CCc1nc2ccc(-c3cnco3)cc2c(=S)[nH]1` [Example 56, 2-Isopentyl-6-(oxazol-5-yl)quinazoline-4(3H)-thione] gave an IC50 of 5 nM.
`CC(C)CCc1nc(NCCCN(C)C)c2cc(-c3cnco3)ccc2n1` [Example 80, N^1-(2-Isopentyl-6-(oxazol-5-yl)quinazolin-4-yl)-N^3,N^3-dimethylpropane-1,3-diamine] showed an IC50 of 3320 nM.
In turn, `CCc1nc(C(N)CC(C)C)nc2ccc(-c3cn[nH]c3)cc12` (stereo not drawn) [Example 63, 1-(4-Ethyl-6-(1H-pyrazol-4-yl)quinazolin-2-yl)-3-methylbutan-1-amine] displayed an IC50 of 28 nM.
Regarding `Cc1cnc(CNc2nc(CCC(C)C)nc3ccc(-c4cnco4)cc23)cn1` [Example 79], the 50% inhibitory concentration (IC50) is 6600 nM.
`CCc1nc(C(CN)CC(C)C)nc2ccc(-c3ccncc3)cc12` (stereo not drawn) [Example 68, 2-(4-Ethyl-6-(pyridin-4-yl)quinazolin-2-yl)-4-methylpentan-1-amine] gave a 50% inhibitory concentration (IC50) of 144 nM.
`COc1nc(C(N)CC(C)C)nc2ccc(-c3cnco3)cc12` (stereo not drawn) [Example 14, 1-(4-Methoxy-6-(oxazol-5-yl)quinazolin-2-yl)-3-methylbutan-1-amine] returned an IC50 of 230 nM. This IC50 lies about 1.6-fold higher than the previous one.
In the case of `COc1cc2nc(C(N)CC(C)C)nc(C#N)c2cc1-c1ccncc1` (stereo not drawn) [Example 35, 2-(1-Amino-3-methylbutyl)-7-methoxy-6-(pyridin-4-yl)quinazoline-4-carbonitrile], the half-maximal inhibitory concentration (IC50) is 68 nM.
For the compound `CC(C)CCc1nc2ccc(-c3cnco3)cc2c(=O)[nH]1` [Example 42, 2-Isopentyl-6-(oxazol-5-yl)quinazolin-4(3H)-one], the IC50 is 49 nM.
`COc1nc(CCC(C)C)nc2ccc(-c3cn[nH]c3)cc12` [Example 37, 2-Isopentyl-4-methoxy-6-(1H-pyrazol-4-yl)quinazoline] came in with a 50% inhibitory concentration (IC50) of 1010 nM.
Turning to `CC(C)CCc1nc(NCCO)c2cc(-c3ccncc3)ccc2n1` [Example 50, 2-(2-Isopentyl-6-(pyridin-4-yl)quinazolin-4-ylamino)ethanol], the concentration for half-maximal inhibition (IC50) is 301 nM.
The compound `CSc1nc(CCC(C)C)nc2ccc(-c3cnco3)cc12` [Example 43, 5-(2-Isopentyl-4-(methylthio)quinazolin-6-yl)oxazole] showed an IC50 of 159 nM.
In the case of `CCc1nc([C@H](N)CC2CC2)nc2ccc(-c3ccncc3)cc12` [Example 70, (R)-2-Cyclopropyl-1-(4-ethyl-6-(pyridin-4-yl)quinazolin-2-yl)ethanamine] it was 126 nM; in that of `COc1cc2nc(C(N)CC(C)C)nc(C#N)c2cc1-c1cnco1` (stereo not drawn) [Example 32, 2-(1-Amino-3-methylbutyl)-7-methoxy-6-(oxazol-5-yl)quinazoline-4-carbonitrile], 6 nM.
In the case of `CC(C)CCc1nc(C#N)c2cc(-c3cnco3)ccc2n1` [Example 31, 2-Isopentyl-6-(oxazol-5-yl)quinazoline-4-carbonitrile] it was 640 nM.
The compound `CC(C)CC(N)c1nc(N(C)C)c2cc(-c3cnco3)ccc2n1` (stereo not drawn) [Example 17, 2-(1-Amino-3-methylbut)-N,N-dimethyl-6-(oxazol-5-yl)quinazolin-4-amine] came in with a 50% inhibitory concentration (IC50) of 360 nM. Compared with the last compound, the IC50 is about 1.8-fold lower.
Turning to `CCc1nc(C(N)CC(C)C)nc2cc(OC)c(-c3cnco3)cc12` (single isomer, unassigned; enantiomer 1) [Example 86, 1-(4-Ethyl-7-methoxy-6-(oxazol-5-yl)quinazolin-2-yl)-3-methylbutan-1-amine (Enantiomer 1)], the midpoint of inhibition, the IC50, lay at 87 nM.
Consider `CCc1nc([C@H](N)C2CCCCC2)nc2ccc(-c3ccncc3)cc12` [Example 72, (R)-Cyclohexyl(4-ethyl-6-(pyridin-4-yl)quinazolin-2-yl)methanamine], for which the concentration for half-maximal inhibition (IC50) is 13 nM.
In the case of `CC(C)CCc1nc(N(C)C)c2cc(-c3cnco3)ccc2n1` [Example 40, 2-Isopentyl-N,N-dimethyl-6-(oxazol-5-yl)quinazolin-4-amine] it was 412 nM; in that of `CC(C)CCc1nc(C(=O)N(C)C)c2cc(-c3ccncc3)ccc2n1` [Example 59, 2-Isopentyl-N,N-dimethyl-6-(pyridin-4-yl)quinazoline-4-carboxamide], 2670 nM.
In the case of `CC(C)CCC1=Nc2ccc(-c3ccncc3)cc2C(CO)N1` (stereo not drawn) [Example 61, (2-Isopentyl-6-(pyridin-4-yl)-3,4-dihydroquinazolin-4-yl)methanol] it was 35 nM; in that of `COc1c(-c2cnco2)ccc2nc(C(N)CC(C)C)ncc12` (stereo not drawn) [Example 11, 1-(5-Methoxy-6-(oxazol-5-yl)quinazolin-2-yl)-3-methylbutan-1-amine], 360 nM; in that of `Cc1nc(C(N)CC(C)C)nc2ccc(-c3cnco3)cc12` (stereo not drawn) [Example 2, 3-Methyl-1-(4-methyl-6-(oxazol-5-yl)quinazolin-2-yl)butan-1-amine], 170 nM.
To `CC(C)CCc1nc(NCCO)c2cc(-c3cnco3)ccc2n1` [Example 76, 2-((2-Isopentyl-6-(oxazol-5-yl)quinazolin-4-yl)amino)ethanol] belongs 1810 nM; to `COc1cnccc1-c1ccc2nc(C(N)CC(C)C)nc(C#N)c2c1` (stereo not drawn) [Example 34, 2-(1-Amino-3-methylbutyl)-6-(3-methoxypyridin-4-yl)quinazoline-4-carbonitrile], 12 nM.
`CCc1nc([C@H](N)C2CCCC2)nc2ccc(-c3ccncc3)cc12` [Example 71, (R)-Cyclopentyl(4-ethyl-6-(pyridin-4-yl)quinazolin-2-yl)methanamine] had an IC50 of 32 nM. This IC50 is about 2.7-fold higher than that of the compound before.
On to `CCc1nc(C(N)CC(C)C)nc2ccc(-c3ccncc3OC)cc12` (stereo not drawn) [Example 6, 1-(4-Ethyl-6-(3-methoxypyridin-4-yl)quinazolin-2-yl)-3-methylbutan-1-amine], for which the half-inhibitory concentration (IC50) is 36 nM.
Compound `CC(C)CC(N)c1nc2ccc(-c3ccncc3)cc2c(=O)[nH]1` (stereo not drawn) [Example 13, 2-(1-Amino-3-methylbutyl)-6-(pyridin-4-yl)quinazolin-4-ol] gave an IC50 of 93 nM.
As to `COc1nc(CCC(C)C)nc2ccc(-c3ccncc3)cc12` [Example 38, 2-Isopentyl-4-methoxy-6-(pyridin-4-yl)quinazoline], it took 1070 nM to reach half-maximal inhibition (IC50). Against the preceding compound, the IC50 is about 12-fold higher.

One may read the IC50 as the point on the concentration scale where inhibition reaches its midpoint. Higher therefore signals a need for much substance.

(Values after patent US20170239249A1, “QUINAZOLINE-BASED KINASE INHIBITORS” (Bristol-Myers Squibb Company, priority 2014, published 2017).)
